# Data reported in ChEMBL document CHEMBL5465560, “Selectivity Literature for EUbOPEN Chemogenomic Library” (2024).
# Tests used:
# [1] = target: Tyrosine-protein kinase Lck (Homo sapiens, UniProt P06239); experiment: Selectivity interaction (Enzymatic assay) EUB0001199aCl LCK
# [2] = target: Tyrosine-protein kinase receptor Tie-1 (Homo sapiens) (UniProt P35590); experiment: Selectivity interaction (KinomeScan (DiscoverX)) EUB0000666a TIE1; conditions: at 10 µM
# [3] = target: T1, Tyrosine-protein kinase Mer (Homo sapiens) (UniProt Q12866); experiment: Selectivity interaction (KinomeScan (DiscoverX)) EUB0000666a MERTK; conditions: at 10 µM
# T1 sequence (whole entry): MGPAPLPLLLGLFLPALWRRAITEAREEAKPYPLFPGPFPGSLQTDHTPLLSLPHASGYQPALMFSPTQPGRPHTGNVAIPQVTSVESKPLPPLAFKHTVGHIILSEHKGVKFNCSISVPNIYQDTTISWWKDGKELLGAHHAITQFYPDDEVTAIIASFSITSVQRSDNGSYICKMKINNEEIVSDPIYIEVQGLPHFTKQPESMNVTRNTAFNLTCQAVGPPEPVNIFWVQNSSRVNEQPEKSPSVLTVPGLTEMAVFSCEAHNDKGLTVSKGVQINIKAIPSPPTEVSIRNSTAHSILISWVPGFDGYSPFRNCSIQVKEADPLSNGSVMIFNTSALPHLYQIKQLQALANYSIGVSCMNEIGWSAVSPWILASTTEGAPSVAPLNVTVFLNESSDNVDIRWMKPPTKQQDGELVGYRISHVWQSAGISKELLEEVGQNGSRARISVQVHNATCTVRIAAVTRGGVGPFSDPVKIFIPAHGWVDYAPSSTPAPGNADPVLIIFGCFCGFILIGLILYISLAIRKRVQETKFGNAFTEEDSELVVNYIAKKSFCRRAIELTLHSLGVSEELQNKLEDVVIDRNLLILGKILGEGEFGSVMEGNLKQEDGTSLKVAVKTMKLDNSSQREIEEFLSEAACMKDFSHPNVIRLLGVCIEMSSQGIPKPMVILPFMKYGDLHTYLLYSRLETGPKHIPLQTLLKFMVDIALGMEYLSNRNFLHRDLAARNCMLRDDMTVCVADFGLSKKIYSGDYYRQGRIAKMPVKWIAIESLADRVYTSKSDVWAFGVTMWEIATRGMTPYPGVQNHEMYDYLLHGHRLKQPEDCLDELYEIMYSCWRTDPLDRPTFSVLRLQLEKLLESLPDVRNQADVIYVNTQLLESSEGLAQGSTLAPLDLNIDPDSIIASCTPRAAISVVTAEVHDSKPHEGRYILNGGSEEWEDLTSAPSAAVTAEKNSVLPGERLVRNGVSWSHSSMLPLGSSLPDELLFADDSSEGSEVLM
# [4] = target: T2, Phosphorylase b kinase gamma catalytic chain, liver/testis isoform (Homo sapiens) (UniProt P15735); experiment: Selectivity interaction (KinomeScan (DiscoverX)) EUB0001079a PHKG2; conditions: at 1 µM
# T2 sequence (whole entry): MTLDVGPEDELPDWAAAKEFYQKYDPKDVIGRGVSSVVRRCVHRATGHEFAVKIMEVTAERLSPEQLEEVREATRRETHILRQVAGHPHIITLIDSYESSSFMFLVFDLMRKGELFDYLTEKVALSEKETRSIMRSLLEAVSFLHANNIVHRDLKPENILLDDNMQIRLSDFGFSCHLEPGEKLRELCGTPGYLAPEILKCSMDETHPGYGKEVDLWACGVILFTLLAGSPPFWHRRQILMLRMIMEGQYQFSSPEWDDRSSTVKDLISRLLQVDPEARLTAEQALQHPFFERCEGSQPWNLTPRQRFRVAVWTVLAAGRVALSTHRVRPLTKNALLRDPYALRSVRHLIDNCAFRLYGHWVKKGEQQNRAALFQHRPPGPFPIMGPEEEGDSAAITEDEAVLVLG
# [5] = target: Casein kinase II subunit alpha' (Homo sapiens) (UniProt P19784); experiment: Selectivity interaction (Kinase panel (DSF assay)) EUB0001559a CSNK2A2
# Casein kinase II subunit alpha' (Homo sapiens), sequence (P19784 whole entry, looked up): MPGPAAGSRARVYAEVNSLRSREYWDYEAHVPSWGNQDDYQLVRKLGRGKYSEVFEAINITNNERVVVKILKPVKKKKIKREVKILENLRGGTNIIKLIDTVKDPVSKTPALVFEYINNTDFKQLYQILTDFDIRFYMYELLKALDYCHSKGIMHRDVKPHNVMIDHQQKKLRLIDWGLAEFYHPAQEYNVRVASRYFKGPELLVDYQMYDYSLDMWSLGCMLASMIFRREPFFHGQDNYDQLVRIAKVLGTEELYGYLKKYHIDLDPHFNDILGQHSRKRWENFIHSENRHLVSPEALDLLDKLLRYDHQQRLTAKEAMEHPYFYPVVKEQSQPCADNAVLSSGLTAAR
# [6] = target: Mitogen-activated protein kinase 3 (Homo sapiens, UniProt P27361); experiment: Selectivity interaction (Kinase panel (Invitrogen)) EUB0000639a MAPK3; conditions: at 200 nM
# Mitogen-activated protein kinase 3, sequence (P27361 whole entry): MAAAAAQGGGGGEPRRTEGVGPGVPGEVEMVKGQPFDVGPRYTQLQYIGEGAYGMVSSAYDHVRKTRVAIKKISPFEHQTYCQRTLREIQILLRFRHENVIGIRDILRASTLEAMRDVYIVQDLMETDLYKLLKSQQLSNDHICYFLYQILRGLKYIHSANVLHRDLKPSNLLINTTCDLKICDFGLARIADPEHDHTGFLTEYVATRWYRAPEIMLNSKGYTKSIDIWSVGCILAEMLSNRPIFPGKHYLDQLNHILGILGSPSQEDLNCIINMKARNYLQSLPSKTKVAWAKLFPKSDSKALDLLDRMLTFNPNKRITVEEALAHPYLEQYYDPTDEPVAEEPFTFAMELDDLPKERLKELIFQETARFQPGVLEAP
# [7] = target: Serine/threonine-protein kinase 16 (Homo sapiens, UniProt O75716); experiment: Selectivity interaction (ActivX KiNativ screen (kinase selectivity in THP-1 cell lysates)) EUB0000639a STK16; type: subcellular; conditions: lysate, at 5 µM
# Serine/threonine-protein kinase 16, sequence (O75716 whole entry): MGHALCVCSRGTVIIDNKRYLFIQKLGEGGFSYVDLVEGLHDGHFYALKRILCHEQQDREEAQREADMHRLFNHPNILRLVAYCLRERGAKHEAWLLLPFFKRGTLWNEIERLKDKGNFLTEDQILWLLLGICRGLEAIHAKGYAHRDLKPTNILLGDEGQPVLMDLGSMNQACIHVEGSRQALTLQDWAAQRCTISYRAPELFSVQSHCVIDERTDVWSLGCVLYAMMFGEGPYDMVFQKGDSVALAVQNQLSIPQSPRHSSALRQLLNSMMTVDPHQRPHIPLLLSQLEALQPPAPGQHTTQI
# [8] = target: Serine/threonine-protein kinase 32A (Homo sapiens) (UniProt Q8WU08); experiment: Selectivity interaction (Ambit KINOMEscan and KiNATiv profiling in Jurkat cells) EUB0000090b STK32A; type: cell-based; conditions: at 1 µM
# Serine/threonine-protein kinase 32A (Homo sapiens), sequence (Q8WU08 whole entry): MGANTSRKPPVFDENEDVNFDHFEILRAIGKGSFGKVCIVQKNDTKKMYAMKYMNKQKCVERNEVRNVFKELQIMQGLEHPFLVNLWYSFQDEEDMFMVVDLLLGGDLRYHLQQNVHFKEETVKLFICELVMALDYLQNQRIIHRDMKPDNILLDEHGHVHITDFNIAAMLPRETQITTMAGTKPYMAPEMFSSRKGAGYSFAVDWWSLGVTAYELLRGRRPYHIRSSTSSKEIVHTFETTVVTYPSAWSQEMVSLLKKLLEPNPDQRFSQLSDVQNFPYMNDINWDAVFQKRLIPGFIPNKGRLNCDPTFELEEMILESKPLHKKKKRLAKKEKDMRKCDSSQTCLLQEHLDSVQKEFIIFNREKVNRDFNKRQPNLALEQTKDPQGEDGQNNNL
# [9] = target: Serine/threonine-protein kinase PAK 2 (Homo sapiens) (UniProt Q13177); experiment: Selectivity interaction (KinomeScan (DiscoverX)) EUB0000618a PAK2; conditions: at 10 µM
# Serine/threonine-protein kinase PAK 2 (Homo sapiens), sequence (Q13177 whole entry): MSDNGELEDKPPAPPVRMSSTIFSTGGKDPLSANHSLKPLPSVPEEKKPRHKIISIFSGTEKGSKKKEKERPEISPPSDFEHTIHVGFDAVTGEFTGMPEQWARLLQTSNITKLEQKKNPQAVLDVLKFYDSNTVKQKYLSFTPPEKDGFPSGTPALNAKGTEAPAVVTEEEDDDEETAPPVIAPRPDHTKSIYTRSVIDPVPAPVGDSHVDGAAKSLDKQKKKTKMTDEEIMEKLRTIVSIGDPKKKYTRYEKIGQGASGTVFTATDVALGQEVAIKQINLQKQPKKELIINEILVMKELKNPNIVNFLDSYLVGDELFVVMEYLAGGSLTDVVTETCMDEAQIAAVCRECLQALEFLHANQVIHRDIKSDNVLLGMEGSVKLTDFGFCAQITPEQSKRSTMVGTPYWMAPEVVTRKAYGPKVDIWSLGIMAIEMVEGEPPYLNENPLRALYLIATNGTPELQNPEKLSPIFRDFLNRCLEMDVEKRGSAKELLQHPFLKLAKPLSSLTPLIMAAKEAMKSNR
# [10] = target: Fibroblast growth factor receptor 1 (Homo sapiens, UniProt P11362); experiment: Selectivity interaction (KinomeScan (DiscoverX)) EUB0000618a FGFR1; conditions: at 10 µM
# Fibroblast growth factor receptor 1, sequence (P11362 22-822 limits assumed): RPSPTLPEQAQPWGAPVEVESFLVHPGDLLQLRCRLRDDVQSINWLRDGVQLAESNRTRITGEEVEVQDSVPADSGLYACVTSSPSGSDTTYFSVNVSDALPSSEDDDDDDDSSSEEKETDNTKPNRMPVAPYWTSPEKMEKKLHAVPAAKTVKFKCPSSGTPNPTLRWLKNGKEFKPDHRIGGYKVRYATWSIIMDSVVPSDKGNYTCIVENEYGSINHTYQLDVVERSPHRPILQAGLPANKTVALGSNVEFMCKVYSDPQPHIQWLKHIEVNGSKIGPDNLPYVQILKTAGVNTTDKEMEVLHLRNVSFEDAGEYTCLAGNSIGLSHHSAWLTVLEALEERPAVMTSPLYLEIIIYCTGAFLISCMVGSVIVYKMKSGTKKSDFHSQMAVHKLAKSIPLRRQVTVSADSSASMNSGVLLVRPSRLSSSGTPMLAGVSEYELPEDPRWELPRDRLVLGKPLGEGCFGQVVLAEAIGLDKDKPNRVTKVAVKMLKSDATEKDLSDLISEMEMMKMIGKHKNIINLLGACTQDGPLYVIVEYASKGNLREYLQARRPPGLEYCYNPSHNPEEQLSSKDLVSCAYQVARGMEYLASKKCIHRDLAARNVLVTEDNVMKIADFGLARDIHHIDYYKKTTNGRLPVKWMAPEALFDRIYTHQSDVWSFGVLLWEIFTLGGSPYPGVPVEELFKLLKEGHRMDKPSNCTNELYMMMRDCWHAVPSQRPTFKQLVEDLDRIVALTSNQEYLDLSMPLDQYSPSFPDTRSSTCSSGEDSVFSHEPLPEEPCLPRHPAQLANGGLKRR
# [11] = target: Myosin light chain kinase, smooth muscle (Homo sapiens, UniProt Q15746); experiment: Selectivity interaction (Upstate Kinase Profiler service (Millipore)) EUB0000056c MYLK; conditions: at 1 µM
# [12] = target: Mitogen-activated protein kinase 6 (Homo sapiens) (UniProt Q16659); experiment: Selectivity interaction (KinomeScan (DiscoverX)) EUB0000607a MAPK6; conditions: at 10 µM
# Mitogen-activated protein kinase 6 (Homo sapiens), sequence (Q16659 whole entry): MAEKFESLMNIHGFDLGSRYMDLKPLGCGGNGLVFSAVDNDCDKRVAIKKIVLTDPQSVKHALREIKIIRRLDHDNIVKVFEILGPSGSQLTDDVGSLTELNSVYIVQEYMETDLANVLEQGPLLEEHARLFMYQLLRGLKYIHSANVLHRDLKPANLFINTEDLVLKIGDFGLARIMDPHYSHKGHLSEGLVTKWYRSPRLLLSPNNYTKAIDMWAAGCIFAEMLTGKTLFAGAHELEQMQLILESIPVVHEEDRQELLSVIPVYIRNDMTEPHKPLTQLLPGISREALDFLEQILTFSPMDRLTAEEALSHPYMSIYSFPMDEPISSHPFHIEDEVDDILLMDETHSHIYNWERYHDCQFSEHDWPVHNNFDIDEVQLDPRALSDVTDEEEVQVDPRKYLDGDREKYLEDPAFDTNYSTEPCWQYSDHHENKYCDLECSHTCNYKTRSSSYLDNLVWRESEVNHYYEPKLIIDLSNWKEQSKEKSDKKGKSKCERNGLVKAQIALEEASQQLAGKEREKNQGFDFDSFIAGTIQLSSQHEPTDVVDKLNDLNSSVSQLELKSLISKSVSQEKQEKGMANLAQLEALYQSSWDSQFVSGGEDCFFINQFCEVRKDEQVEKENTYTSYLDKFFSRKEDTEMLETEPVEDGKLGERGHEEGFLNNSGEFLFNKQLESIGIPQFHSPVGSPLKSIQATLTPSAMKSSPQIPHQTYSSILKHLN
# Tyrosine-protein kinase Lck, sequence (P06239 whole entry): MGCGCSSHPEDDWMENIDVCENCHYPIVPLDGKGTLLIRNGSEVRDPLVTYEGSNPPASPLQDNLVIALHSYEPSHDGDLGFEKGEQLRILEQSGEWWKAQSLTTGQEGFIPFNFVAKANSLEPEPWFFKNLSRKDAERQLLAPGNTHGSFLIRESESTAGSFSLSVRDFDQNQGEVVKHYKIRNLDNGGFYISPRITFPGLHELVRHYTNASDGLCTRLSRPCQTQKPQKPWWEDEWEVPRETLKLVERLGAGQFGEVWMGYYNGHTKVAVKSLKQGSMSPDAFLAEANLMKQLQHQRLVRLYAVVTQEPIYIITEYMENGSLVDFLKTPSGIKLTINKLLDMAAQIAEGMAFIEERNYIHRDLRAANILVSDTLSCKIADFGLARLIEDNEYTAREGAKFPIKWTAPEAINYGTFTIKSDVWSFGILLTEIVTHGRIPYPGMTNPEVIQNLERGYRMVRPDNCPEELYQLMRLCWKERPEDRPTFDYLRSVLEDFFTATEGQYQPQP
smiles,measurement,setting,value
CN1Cc2nccc(-c3cn(C)nc3-c3ccc(F)cc3)c2C1=O,IC50,[1],10.2 µM
O=C(NOC[C@H](O)CO)c1ccc(F)c(F)c1Nc1ccc(I)cc1F,% of control,[2],54%
same,% of control,[3],100%
Nc1cnc(N2CCc3cc(S(=O)(=O)Nc4c(F)cc(Cl)cc4F)cc(N4CCCC4=O)c32)nc1 [TP-020n],% of control,[4],100%
CN(C(=O)c1cnn2cccnc12)c1cc2c(cc1N1CCOCC1)C(=O)N(C[C@@H](F)C(C)(C)O)C2,dTM,[5],1.4 K
CC[C@@H]1[C@H](F)C(=O)N[C@@H]1COc1nccc2cc(C(N)=O)c(OC)cc12 [ZIMLOVISERTIB],% of inhibition,[6],4.09%
same,% of inhibition,[7],81.9%
CN(C)C/C=C/C(=O)Nc1ccc(C(=O)N2CCCC(Nc3ncc(Cl)c(-c4c[nH]c5ccccc45)n3)C2)cc1 (configuration not stated),% of control,[8],99%
O[C@H]1CC[C@H](Nc2ncc3nc(Nc4c(F)cc(F)cc4F)n([C@H]4CCOC4)c3n2)CC1,% of control,[9],100%
same,% of control,[10],69%
Cc1ccc(-c2ccc3c(ccc4sc5c(c43)NC[C@@H](C)NC5=O)n2)cn1,% of inhibition,[11],1%
CNC(=O)Nc1ccc(-c2nc(N3CC4CCC(C3)O4)c3cnn(C4CCC5(CC4)OCCO5)c3n2)cc1,% of control,[12],85%
